# Test results taken from ChEMBL document CHEMBL4699396, “Macrocyclic peptidomimetics as inhibitors of insulin-regulated aminopeptidase (IRAP)” (RSC Med Chem, 2020).
# Tested on: Insulin-regulated aminopeptidase (Homo sapiens)
# Assay: Binding affinity to recombinant full length human IRAP expressed in HEK293T cells assessed as binding free energy
row,deltaG [kcal/mol],Structure (SMILES)
1,-12.4,N[C@H]1CC/C=C/CC[C@@H](C(=O)NCc2ccccc2CC(=O)O)NC(=O)C[C@H](Cc2ccc(O)cc2)NC1=O
2,-10.7,N[C@H]1CC/C=C\CC[C@@H](C(=O)NCc2ccccc2CC(=O)O)NC(=O)C[C@H](Cc2ccc(O)cc2)NC1=O
